Data as given in patent US20140051679A1, “KINASE INHIBITORS AND METHOD OF TREATING CANCER WITH SAME” (UNIVERISTY HEALTH NETWORKS, priority 2011, published 2014).

Key:
[1] = molecular target: T1, human TTK (Homo sapiens, UniProt P33981); experiment: TTK inhibition assay (indirect ELISA); assay type: biochemical; details: GST-TTK 0.68 nM, 16 μM ATP; read-out: IC50 Ranges TTK
T1 construct: amino terminal GST fusion of full length human TTK; purchased Invitrogen
T1 sequence (P33981 1-857): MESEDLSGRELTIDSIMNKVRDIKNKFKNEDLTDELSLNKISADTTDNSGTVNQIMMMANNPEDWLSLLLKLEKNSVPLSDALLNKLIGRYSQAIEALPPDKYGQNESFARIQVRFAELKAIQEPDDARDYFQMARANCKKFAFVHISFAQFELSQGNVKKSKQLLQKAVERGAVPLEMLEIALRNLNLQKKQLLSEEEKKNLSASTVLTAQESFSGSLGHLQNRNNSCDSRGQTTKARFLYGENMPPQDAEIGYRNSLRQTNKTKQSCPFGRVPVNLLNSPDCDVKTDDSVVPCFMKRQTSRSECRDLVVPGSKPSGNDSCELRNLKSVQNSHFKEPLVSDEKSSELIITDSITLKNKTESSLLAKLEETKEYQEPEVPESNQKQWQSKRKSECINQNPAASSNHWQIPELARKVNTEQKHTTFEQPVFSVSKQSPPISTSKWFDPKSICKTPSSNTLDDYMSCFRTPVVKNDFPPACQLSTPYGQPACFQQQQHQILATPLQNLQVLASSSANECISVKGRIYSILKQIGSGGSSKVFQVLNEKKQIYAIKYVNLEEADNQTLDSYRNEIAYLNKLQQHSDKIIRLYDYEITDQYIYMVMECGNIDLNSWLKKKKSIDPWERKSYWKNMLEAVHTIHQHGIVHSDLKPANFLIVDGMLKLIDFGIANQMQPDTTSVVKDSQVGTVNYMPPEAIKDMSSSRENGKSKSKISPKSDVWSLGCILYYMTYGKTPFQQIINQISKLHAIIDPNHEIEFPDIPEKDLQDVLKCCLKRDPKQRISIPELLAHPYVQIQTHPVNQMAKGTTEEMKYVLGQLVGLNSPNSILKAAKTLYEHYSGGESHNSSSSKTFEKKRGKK

[2] = molecular target: T2, human PLK4 (Homo sapiens, UniProt O00444); experiment: PLK4 inhibition assay (indirect ELISA); assay type: biochemical; details: GST-PLK4 4 nM, 15 μM ATP; read-out: IC50 Ranges PLK4
T2 construct: amino terminal GST fusion of residues 1-391 of human PLK4; made in house; host or cells: E. coli
T2 sequence (O00444 1-391): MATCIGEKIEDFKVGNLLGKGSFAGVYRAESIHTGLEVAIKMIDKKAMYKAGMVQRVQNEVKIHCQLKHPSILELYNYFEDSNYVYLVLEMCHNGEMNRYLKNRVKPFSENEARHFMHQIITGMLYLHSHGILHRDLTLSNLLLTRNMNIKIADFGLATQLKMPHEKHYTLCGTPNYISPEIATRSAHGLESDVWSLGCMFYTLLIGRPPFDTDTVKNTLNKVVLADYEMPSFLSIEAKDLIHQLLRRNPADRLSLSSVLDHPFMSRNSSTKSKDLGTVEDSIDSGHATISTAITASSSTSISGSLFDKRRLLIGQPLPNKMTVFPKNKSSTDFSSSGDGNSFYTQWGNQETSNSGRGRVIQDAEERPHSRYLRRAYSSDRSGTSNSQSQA
In short: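 Dephosphorylated GST-tagged human PLK4 (residues 1-391, E. coli), 4 nM, preincubated 15 min with compound, then reacted 30 min with 15 μM ATP on MBP-coated plates (50 mM HEPES pH 7.5, 10 mM MgCl2, 0.01% Brij 35). Phospho-MBP detected by antibody ELISA at 450 nm. Tested at 10 μM or 10-point titrations; IC50 from 4-parameter logistic fit.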

[3] = molecular target: T3, Aurora B (Homo sapiens, UniProt Q96GD4); experiment: Aurora B inhibition assay (Z-Lyte); assay type: biochemical; details: 28 nM Aurora B, 128 μM ATP; read-out: IC50 Ranges Aurora B
T3 construct: purchased Invitrogen PV3970
Protocol: Aurora B inhibition was determined using the Z-Lyte assay kit from Invitrogen. The assay was performed using the recommended manufacturer's instructions with 128 μM ATP and 28 nM Aurora B (Invitrogen cat #PV3970). The % inhibition values were determined according to the manufacturer's directions and IC50 values were obtained using a non-linear 4 point logistic curve fit (XLfit4, IDBS)

[4] = test system: MDA-MB-231 breast cancer cells; experiment: Cell growth inhibition, Sulforhodamine B assay, MDA-MB-231; assay type: cell-based; details: Homo sapiens, 120 h, 5 days culture, SRB assay, read-out: Cell Line GI50 Range MDA-MB-231
[5] = test system: MDA-MB-468 breast cancer cells; experiment: Cell growth inhibition, Sulforhodamine B assay, MDA-MB-468; assay type: cell-based; details: Homo sapiens, 120 h, 5 days culture, SRB assay, read-out: Cell Line GI50 Range MDA-MB-468
[6] = test system: HCT116 colon cancer cells; experiment: Cell growth inhibition, Sulforhodamine B assay, HCT116; assay type: cell-based; details: Homo sapiens, HCT-116, 120 h, 5 days culture, SRB assay, read-out: Cell Line GI50 Range HCT116
Protocol: (§1) Breast cancer cells (MDA-MB-231, MDA-MB-468), colon cancer cells (HCT116, HT29) and ovarian cancer cells (PA-1, OVCAR-3) were seeded (1000 to 4000 in 80 μl per well depending on the cell growth rate) into 96 well plates 24 hours before compound overlay. Compounds were prepared as 10 mM stock solutions in 100% DMSO which were diluted with DMEM (Dulbecco's Modified Eagle's Medium) cell growth Medium (Invitrogen, Burlington, ON, Canada) containing 10% FBS (Fetal Bovine Serum) to concentrations ranging from 50 nM to 250 μM. Aliquots (20 μl) from each concentration were overlaid to 80 μl of the pre-seeded cells in the 96 well plates to make final concentrations of 10 nM to 50 μM. The cells were cultured for 5 days before the Sulforhodamine B assay (SRB) was performed to determine the compound's cell growth inhibition activity.
(§2) Sulforhodamine B (purchased from Sigma, Oakville, ON, Canada) is a water-soluble dye that binds to the basic amino acids of the cellular proteins. Thus, colorimetric measurement of the bound dye provides an estimate of the total protein mass that is related to the cell number. the cells are fixed in situ by gently aspirating off the culture media and adding 50 μl ice cold 10% Trichloroacetic Acid (TCA) per well and incubate at 4° C. for 30-60 min, The plates are washed with water five times and allowed to air dry for 5 min. Addition of 50 μl 0.4% (w/v) SRB solution in 1% (v/v) acetic acid to each well and incubatation for 30 min at RT completes the staining reaction. Following staining, plates are washed four times with 1% acetic acid to remove unbound dye and then allowed to air dry for 5 min. The stain is solubilized with 100 μl of 10 mM Tris pH 10.5 per well. Absorbance is read at 570 nm.
(§3) The percentage (%) of relative growth inhibition was calculated by comparing to DMSO treated only cells (100%). […] The GI50 was calculated using GraphPad PRISM software (GraphPad Software, Inc., San Diego, Calif., USA).

[7] = test system: HT29 colon cancer cells; experiment: Cell growth inhibition, Sulforhodamine B assay, HT29; assay type: cell-based; details: Homo sapiens, HT-29, 120 h, 5 days culture, SRB assay, read-out: Cell Line GI50 Range HT29
[8] = test system: PA-1 ovarian cancer cells; experiment: Cell growth inhibition, Sulforhodamine B assay, PA-1; assay type: cell-based; details: 120 h, 5 days culture, SRB assay, read-out: Cell Line GI50 Range PA-1
Protocol: as §1, §2, §3

[9] = test system: OVCAR-3 ovarian cancer cells; experiment: Cell growth inhibition, Sulforhodamine B assay, OVCAR-3; assay type: cell-based; details: Homo sapiens, 120 h, 5 days culture, SRB assay, read-out: Cell Line GI50 Range OVCAR-3
[10] = test system: Colon tumor initiating cells (TICs), 12 colon; experiment: Colon tumor-initiating cell growth inhibition (Alamar Blue); assay type: cell-based; details: 216 h, 9 days, read-out: GI50 range 12 colon
Source text: Materials and Methods: Non-tissue or tissure cultured treated T-75 flask and 96-well plates were purchased from VWR. Vitamin B-27 supplement, MEM NEAA (minimum essential medium non essential amino acids), sodium pyruvate, L-glutamine, N2 supplement, penicillin-streptomycin and fungizone/amphotericin B were obtained from Invitrogen. Lipid mixture, heparin and EGF were purchased from Sigma; bFGF from BD Biosciences. Colon tumor initiating cells (TICs) were routinely maintained using non-tissue cultured treated T-75 flasks in DMEM:F12 medium containing 0.2XB-27 supplement, 4 ug/ml heparin, 1XMEM NEAA, 1× sodium pyruvate, 1 mM glutamine, 10 pg/ul bFGF, 20 pg/ul EGF, 1×N2 supplement, lipid mixture, penicillin-streptomycin and fungizone/amphotericin B. Ovarian TICs were routinely maintained using tissue cultured treated T-75 flasks in DMEM:F12 medium containing 1XB-27 supplement, 4 ug/ml heparin, 20 pg/ul bFGF, 20 pg/ul EGF and penicillin-streptomycin.
Compounds described herein were dissolved in DMSO and further diluted in cell culture medium for GI50 determination. Colon TICs were trypsinized and seeded into non-tissue cultured treated 96-well plates with 4,000 cells/well. After 24 h, compound was added into the cell culture at different concentrations, and the final concentration of DMSO was adjusted to 0.1%. Cells were then cultured at 37° C. for 9 days. Ovarian TICs were trypsinized and seeded into tissue cultured treated 96-well plates with 1,000 cells/well. After 24 h, compound was added into the cell culture at different concentrations, and the final concentration of DMSO was adjusted to 0.1%. Cells were then cultured at 37° C. for 6 days. Cell viability was assessed by Alamar Blue assay: 10 ul of Alamar Blue was added into each well. After 4 hours incubation at 37° C., fluorescence was recorded at excitation 544 and emission 590. GI50 (Growth inhibition) was calculated using GraphPad Prism 4.0 software.

[11] = test system: Ovarian TICs, 2393A ovarian; experiment: Ovarian tumor-initiating cell growth inhibition (Alamar Blue); assay type: cell-based; details: 144 h, 6 days, read-out: GI50 range 2393A ovarian

T3 sequence (Q96GD4 whole entry): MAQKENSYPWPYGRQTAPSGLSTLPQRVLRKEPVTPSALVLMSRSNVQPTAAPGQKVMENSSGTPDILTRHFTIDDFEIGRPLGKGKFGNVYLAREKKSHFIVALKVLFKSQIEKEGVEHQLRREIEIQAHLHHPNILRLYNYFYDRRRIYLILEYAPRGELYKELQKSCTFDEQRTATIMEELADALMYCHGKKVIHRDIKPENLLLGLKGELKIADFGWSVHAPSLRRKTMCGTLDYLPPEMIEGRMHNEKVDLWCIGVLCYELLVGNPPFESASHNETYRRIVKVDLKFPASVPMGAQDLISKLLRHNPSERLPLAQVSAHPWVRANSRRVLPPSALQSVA

CN1CCC(Oc2ccc(-c3n[nH]c4ccc(C(=O)NC(c5ccccc5)C5CCOCC5)cc34)cc2)CC1 (stereo not shown) [Example A177, 3-(4-((1-methylpiperidin-4-yl)oxy)phenyl)-N-(phenyl(tetrahydro-2H-pyran-4-yl)methyl)-1H-indazole-5-carboxamide]
≤ 5 µM: IC50 [1] | IC50 [2] | IC50 [3] | GI50 [4] | GI50 [5] | GI50 [6] | GI50 [7] | GI50 [8] | GI50 [9] | GI50 [10] | GI50 [11]

CN1CCC(Oc2ccc(-c3n[nH]c4ccc(NC(=O)C(c5cccs5)N5CCCC5)cc34)cc2)CC1 (stereo not shown) [Example A91, N-(3-(4-((1-methylpiperidin-4-yl)oxy)phenyl)-1H-indazol-5-yl)-2-(pyrrolidin-1-yl)-2-(thiophen-2-yl)acetamide]
≤ 5 µM: IC50 [1] | IC50 [2] | IC50 [3] | GI50 [4] | GI50 [5] | GI50 [6] | GI50 [7] | GI50 [8] | GI50 [9] | GI50 [10] | GI50 [11]

CN1CCC(Oc2ccc(-c3n[nH]c4ccc(C(=O)N[C@@H](c5sccc5Cl)C5CC5)cc34)cc2)CC1 [Example A166, (R)—N-((3-chlorothiophen-2-yl)(cyclopropyl)methyl)-3-(4-((1-methylpiperidin-4-yl)oxy)phenyl)-1H-indazole-5-carboxamide]
≤ 5 µM: IC50 [1] | IC50 [2] | IC50 [3] | GI50 [4] | GI50 [5] | GI50 [6] | GI50 [7] | GI50 [8] | GI50 [9] | GI50 [10] | GI50 [11]

COCCN1CCC(Oc2ccc(-c3n[nH]c4ccc(NC(=O)C(c5ccsc5)N5CCCC5)cc34)cc2)CC1 (stereo not shown) [Example A175, N-(3-(4-((1-(2-methoxyethyl)piperidin-4-yl)oxy)phenyl)-1H-indazol-5-yl)-2-(pyrrolidin-1-yl)-2-(thiophen-3-yl)acetamide]
≤ 5 µM: IC50 [1] | IC50 [2] | IC50 [3] | GI50 [4] | GI50 [5] | GI50 [6] | GI50 [7] | GI50 [8] | GI50 [9] | GI50 [10] | GI50 [11]

CN1CCC(Oc2ccc(-c3n[nH]c4ccc(C(=O)NC(c5ccsc5)C5CCCC5)cc34)cc2)CC1 (stereo not shown) [Example A110, N-(cyclopentyl(thiophen-3-yl)methyl)-3-(4-((1-methylpiperidin-4-yl)oxy)phenyl)-1H-indazol-5-carboxamide]
≤ 5 µM: IC50 [1] | IC50 [2] | IC50 [3] | GI50 [4] | GI50 [5] | GI50 [6] | GI50 [7] | GI50 [8] | GI50 [9] | GI50 [10] | GI50 [11]

COCCN1CCC(Oc2ccc(-c3n[nH]c4ccc(C(=O)NC(c5ccccc5)C5CC5)cc34)cc2)CC1 (stereo not shown) [Example A98, N-(cyclopropyl(phenyl)methyl)-3-(4-((1-(2-methoxyethyl)piperidin-4-yl)oxy)phenyl)-1H-indazole-5-carboxamide]
≤ 5 µM: IC50 [1] | IC50 [2] | IC50 [3] | GI50 [4] | GI50 [5] | GI50 [6] | GI50 [7] | GI50 [8] | GI50 [9] | GI50 [10] | GI50 [11]

CN1CCC(Oc2ccc(-c3n[nH]c4ccc(C(=O)NC(c5ccccc5F)C5CC5)cc34)cc2)CC1 (stereo not shown) [Example A136, N-(cyclopropyl(2-fluorophenyl)methyl)-3-(4-((1-methylpiperidin-4-yl)oxy)phenyl)-1H-indazole-5-carboxamide]
≤ 5 µM: IC50 [1] | IC50 [2] | IC50 [3] | GI50 [4] | GI50 [5] | GI50 [6] | GI50 [7] | GI50 [8] | GI50 [9] | GI50 [10] | GI50 [11]

COc1ccccc1C(NC(=O)c1ccc2[nH]nc(-c3ccc(OC4CCN(C)CC4)cc3)c2c1)C1CC1 (stereo not shown) [Example A151, N-(cyclopropyl(2-methoxyphenyl)methyl)-3-(4-((1-methylpiperidin-4-yl)oxy)phenyl)-1H-indazole-5-carboxamide]
≤ 5 µM: IC50 [1] | IC50 [2] | IC50 [3] | GI50 [4] | GI50 [5] | GI50 [6] | GI50 [7] | GI50 [8] | GI50 [9] | GI50 [10] | GI50 [11]

Cc1ccccc1C(C(=O)Nc1ccc2[nH]nc(-c3ccc(OC4CCN(C)CC4)cc3)c2c1)N1CCCC1 (stereo not shown) [Example A133, N-(3-(4-((1-methylpiperidin-4-yl)oxy)phenyl)-1H-indazol-5-yl)-2-(pyrrolidin-1-yl)-2-(o-tolyl)acetamide]
≤ 5 µM: IC50 [1] | IC50 [2] | IC50 [3] | GI50 [4] | GI50 [5] | GI50 [6] | GI50 [7] | GI50 [8] | GI50 [9] | GI50 [10] | GI50 [11]

CN1CCC(Oc2ccc(-c3n[nH]c4ccc(C(=O)NC(c5cccs5)C5CC5)cc34)cc2)CC1 (stereo not shown) [Example A147]
≤ 5 µM: IC50 [1] | IC50 [2] | IC50 [3] | GI50 [4] | GI50 [5] | GI50 [6] | GI50 [7] | GI50 [8] | GI50 [9] | GI50 [10] | GI50 [11]

CN1CCC(Oc2ccc(-c3n[nH]c4ccc(NC(=O)C(c5ccccc5)C5CC5)cc34)cc2)CC1 (stereo not shown) [Example A138, 2-cyclopropyl-N-(3-(4-((1-methylpiperidin-4-yl)oxy)phenyl)-1H-indazol-5-yl)-2-phenylacetamide]
≤ 5 µM: IC50 [1] | IC50 [2] | IC50 [3] | GI50 [4] | GI50 [5] | GI50 [6] | GI50 [7] | GI50 [8] | GI50 [9] | GI50 [10] | GI50 [11]
